# Laboratory results taken from publication PMC10485003, “Antibiotic hyper-resistance in a class I aminoacyl-tRNA synthetase with altered active site signature motif” (Nature Communications, 2023).
# Values joined by “and” are separate entries in the source; they are usually repeats but may differ in a detail not shown here. Equal values may be shown once. Read-outs that look alike come from different tables or passages of the source.
# Tests used:
# [1] = target: SgIleRS2; conditions: non-canonical motif; cited from earlier work
# [2] = tested on: E. coli IleRS1; set-up: method as in earlier work; conditions: activation step, absence of tRNA; cited from earlier work
# [3] = target: IleRS1; set-up: method as in PMID 6258580, PMID 9822630; conditions: type 1 proteins strongly inhibited; cited from earlier work
# [4] = tested on: E. coli IleRS1; set-up: method as in earlier work; conditions: aminoacylation, with tRNA; cited from earlier work
# [5] = target: ScIleRS2; conditions: activation step, absence of tRNA; cited from earlier work
# [6] = target: wt-HVGH PmIleRS2; conditions: cited from earlier work
# [7] = tested on: W130Q PmIleRS2; test: ATP-PPi exchange assay, mupirocin inhibition of amino acid activation; type: biochemical, Priestia (Bacillus) megaterium; conditions: for vo (initial enzyme velocity): Replica 1-3
# Description: L-Ile and ATP concentrations ranged from 1/10 KM to 10 KM values. When measuring the KI towards one of the substrates, the other was held in saturation (concentrations at least 10 KM). The aliquots of the reaction mixture (1–2.5 μl) were quenched in 2 volumes of 500 mM NaOAc pH = 4.5, 0.1% SDS, and formed ^32P-ATP was separated from the remaining ^32P-PPi by thin-layer chromatography on Polygram CEL 300 PEI UV254 TLC plates (Macherey-Nagel, cat: 801063) using 750 mM KH2PO4 pH=3.5, 4 M urea buffer. Visualization and quantification of the signals was performed using a Typhoon Phosphoimager 5 (General Electric) and accompanying ImageQuant™ TL software (SV: 10.2). The kinetic constants were determined using a global fit option of the competitive inhibition model of GraphPad Prism 6 software (SV: 6.01). All experiments were performed in triplicates. The kcat was determined by dividing the maximal velocity, VM, with the used enzyme concentration.
# Source data are provided as a Source Data file. Data are presented as the average value
# ± SD of three independent experiments. b) A 2Fo-Fc Fourier difference map of the W130Q-HVGH-PmIleRS2:Ile-AMS […]
compound,measurement,setting,value
C/C(=C\C(=O)OCCCCCCCCC(=O)O)C[C@@H]1OC[C@H](C[C@@H]2O[C@H]2[C@@H](C)[C@H](C)O)[C@@H](O)[C@H]1O [mupirocin],Ki for mupirocin,[1],mM range
same,Ki,[2],0.006 µM
same,Ki,[3],low nanomolar range
same,Ki,[4],0.0025 µM
same,Ki,[5],8.6 µM
same,Ki,"[6]; amino acid activation step, ATP/PPi exchange assay, Ile varied, read-out: KI (MUP)Ile",1.08 ± 0.06 µM
same,Ki,"[6]; mupirocin inhibition towards Ile, GraphPad Prism output, Repl1-Repl3, Table 1 footnote b gives this enzyme's values as from ref 21, read-out: KI, single replicates",1.04 µM and 0.99 µM and 1.18 µM
same,vo (initial enzyme velocity),"[7]; c (mupirocin) = 1.0 μM, c (ATP) 5.0 mM, raw data for KI(MUP) towards ATP",0.02357 mM/min and 0.02647 mM/min and 0.02323 mM/min
same,vo (initial enzyme velocity),"[7]; c (mupirocin) = 1.0 μM, c (ATP) 10.0 mM, raw data for KI(MUP) towards ATP",0.0305 mM/min and 0.03243 mM/min and 0.02895 mM/min
same,vo (initial enzyme velocity),"[7]; c (mupirocin) = 1.0 μM, c (ATP) 15.0 mM, raw data for KI(MUP) towards ATP",0.0343 mM/min and 0.0357 mM/min and 0.0344 mM/min
same,vo (initial enzyme velocity),"[7]; c (mupirocin) = 1.0 μM, c (ATP) 25.0 mM, raw data for KI(MUP) towards ATP",0.03769 mM/min and 0.03939 mM/min and 0.0387 mM/min
same,vo (initial enzyme velocity),"[7]; c (mupirocin) = 1.0 μM, c (Ile) 10.0 μM, raw data for KI(MUP) towards Ile",0.0192 mM/min
same,vo (initial enzyme velocity),"[7]; c (mupirocin) = 1.0 μM, c (Ile) 20.0 μM, raw data for KI(MUP) towards Ile",0.02795 mM/min and 0.02585 mM/min and 0.02685 mM/min
same,vo (initial enzyme velocity),"[7]; c (mupirocin) = 1.0 μM, c (Ile) 40.0 μM, raw data for KI(MUP) towards Ile",0.03537 mM/min and 0.0321 mM/min and 0.03467 mM/min
same,vo (initial enzyme velocity),"[7]; c (mupirocin) = 1.0 μM, c (Ile) 80.0 μM, raw data for KI(MUP) towards Ile",0.04151 mM/min and 0.04237 mM/min and 0.04366 mM/min
same,vo (initial enzyme velocity),"[7]; c (mupirocin) = 1.0 μM, c (Ile) 120.0 μM, raw data for KI(MUP) towards Ile",0.0461 mM/min and 0.04503 mM/min and 0.04686 mM/min
same,vo (initial enzyme velocity),"[7]; c (mupirocin) = 5.0 μM, c (ATP) 5.0 mM, raw data for KI(MUP) towards ATP",0.0136 mM/min and 0.01356 mM/min and 0.01125 mM/min
same,vo (initial enzyme velocity),"[7]; c (mupirocin) = 5.0 μM, c (ATP) 10.0 mM, raw data for KI(MUP) towards ATP",0.021 mM/min and 0.0203 mM/min and 0.0182 mM/min
same,vo (initial enzyme velocity),"[7]; c (mupirocin) = 5.0 μM, c (ATP) 15.0 mM, raw data for KI(MUP) towards ATP",0.02537 mM/min and 0.0244 mM/min and 0.02261 mM/min
same,vo (initial enzyme velocity),"[7]; c (mupirocin) = 5.0 μM, c (ATP) 25.0 mM, raw data for KI(MUP) towards ATP",0.02943 mM/min and 0.02877 mM/min and 0.02783 mM/min
same,vo (initial enzyme velocity),"[7]; c (mupirocin) = 5.0 μM, c (Ile) 10.0 μM, raw data for KI(MUP) towards Ile",0.00903 mM/min and 0.00774 mM/min and 0.00698 mM/min
same,vo (initial enzyme velocity),"[7]; c (mupirocin) = 5.0 μM, c (Ile) 20.0 μM, raw data for KI(MUP) towards Ile",0.01459 mM/min and 0.01343 mM/min and 0.013 mM/min
same,vo (initial enzyme velocity),"[7]; c (mupirocin) = 5.0 μM, c (Ile) 40.0 μM, raw data for KI(MUP) towards Ile",0.0221 mM/min and 0.01963 mM/min and 0.02145 mM/min
same,vo (initial enzyme velocity),"[7]; c (mupirocin) = 5.0 μM, c (Ile) 80.0 μM, raw data for KI(MUP) towards Ile",0.02978 mM/min and 0.02747 mM/min and 0.02888 mM/min
same,vo (initial enzyme velocity),"[7]; c (mupirocin) = 5.0 μM, c (Ile) 120.0 μM, raw data for KI(MUP) towards Ile",0.03377 mM/min
same,vo (initial enzyme velocity),"[7]; c (mupirocin) = 10.0 μM, c (ATP) 5.0 mM, raw data for KI(MUP) towards ATP",0.00715 mM/min and 0.00752 mM/min and 0.00698 mM/min
same,vo (initial enzyme velocity),"[7]; c (mupirocin) = 10.0 μM, c (ATP) 10.0 mM, raw data for KI(MUP) towards ATP",0.01301 mM/min and 0.0137 mM/min and 0.0124 mM/min
same,vo (initial enzyme velocity),"[7]; c (mupirocin) = 10.0 μM, c (ATP) 15.0 mM, raw data for KI(MUP) towards ATP",0.0168 mM/min and 0.01667 mM/min and 0.01548 mM/min
same,vo (initial enzyme velocity),"[7]; c (mupirocin) = 10.0 μM, c (ATP) 25.0 mM, raw data for KI(MUP) towards ATP",0.02198 mM/min and 0.0226 mM/min and 0.02035 mM/min
same,vo (initial enzyme velocity),"[7]; c (mupirocin) = 10.0 μM, c (Ile) 20.0 μM, raw data for KI(MUP) towards Ile",0.00596 mM/min and 0.0067 mM/min and 0.0071 mM/min
same,vo (initial enzyme velocity),"[7]; c (mupirocin) = 10.0 μM, c (Ile) 40.0 μM, raw data for KI(MUP) towards Ile",0.01336 mM/min and 0.01164 mM/min and 0.01202 mM/min
same,vo (initial enzyme velocity),"[7]; c (mupirocin) = 10.0 μM, c (Ile) 80.0 μM, raw data for KI(MUP) towards Ile",0.02022 mM/min and 0.01917 mM/min and 0.021 mM/min
same,vo (initial enzyme velocity),"[7]; c (mupirocin) = 10.0 μM, c (Ile) 120.0 μM, raw data for KI(MUP) towards Ile",0.0257 mM/min and 0.02427 mM/min and 0.02578 mM/min
same,vo (initial enzyme velocity),"[7]; c (mupirocin) = 25.0 μM, c (ATP) 5.0 mM, raw data for KI(MUP) towards ATP",0.00415 mM/min and 0.00472 mM/min and 0.00553 mM/min
same,vo (initial enzyme velocity),"[7]; c (mupirocin) = 25.0 μM, c (ATP) 10.0 mM, raw data for KI(MUP) towards ATP",0.0064 mM/min and 0.00737 mM/min and 0.0088 mM/min
same,vo (initial enzyme velocity),"[7]; c (mupirocin) = 25.0 μM, c (ATP) 15.0 mM, raw data for KI(MUP) towards ATP",0.01013 mM/min and 0.00993 mM/min and 0.01101 mM/min
same,vo (initial enzyme velocity),"[7]; c (mupirocin) = 25.0 μM, c (ATP) 25.0 mM, raw data for KI(MUP) towards ATP",0.01337 mM/min and 0.01219 mM/min and 0.01445 mM/min
same,vo (initial enzyme velocity),"[7]; c (mupirocin) = 25.0 μM, c (Ile) 10.0 μM, raw data for KI(MUP) towards Ile",0.0021 mM/min and 0.00205 mM/min and 0.00211 mM/min
same,vo (initial enzyme velocity),"[7]; c (mupirocin) = 25.0 μM, c (Ile) 20.0 μM, raw data for KI(MUP) towards Ile",0.00338 mM/min and 0.00346 mM/min
same,vo (initial enzyme velocity),"[7]; c (mupirocin) = 25.0 μM, c (Ile) 40.0 μM, raw data for KI(MUP) towards Ile",0.00807 mM/min and 0.00657 mM/min and 0.00667 mM/min
same,vo (initial enzyme velocity),"[7]; c (mupirocin) = 25.0 μM, c (Ile) 80.0 μM, raw data for KI(MUP) towards Ile",0.012 mM/min and 0.01121 mM/min and 0.01201 mM/min
same,vo (initial enzyme velocity),"[7]; c (mupirocin) = 25.0 μM, c (Ile) 120.0 μM, raw data for KI(MUP) towards Ile",0.01558 mM/min and 0.01519 mM/min and 0.0161 mM/min
same,Ki for mupirocin compared with wild-type,"[7]; kinetic analysis, Supplementary Fig. 8",remained the same
